This note sets out measurements from patent US20240166642A1, “INHIBITORS OF MYELOPEROXIDASE” (ASTRAZENECA AB, priority 2022, published 2024).

Test [1] has as its target MPO (purified from HL60 cells) (Homo sapiens (Human), UniProt P05164). The test can be described thus: MPO activity (IC50), luminol chemiluminescence assay. In kind it is biochemical. The conditions noted are these: PBS pH7.4, luminol 100 μM, H2O2 50 μM, chemiluminescence recorded after 15 minutes. The procedure:
(§1) The experiments were performed in phosphate-buffered saline (PBS), pH7.4. A 10 mM luminol (A4695, Sigma Aldrich, St Louis, MO, USA) stock was prepared in distilled water and further diluted in PBS to a final concentration of 100 μM. H2O2 was prepared as 1 mM stock in PBS, yielding a final concentration of 50 μM after addition into the assay. The compounds were serially diluted in DMSO in a separate plate as a 100× stock solution, and MPO (purified from HL60 cells) and TPO (produced in insect cells, RSR Ltd, Cardiff, UK), were diluted to yield a final concentration of approximately 14 and 150 ng/mL, generating 5600 and 9300 light counts per seconds (LCPS) upon incubation with luminol.
(§2) The experiment was run by pipetting 2 μL 100× stock solution of the compound and 200 μL diluted enzyme in PBS into wells in a 96-well Optiplate (6005290, Perkin Elmer/Thermo Fischer, Waltham, MS, USA), followed by addition of 10 μL H2O2 containing PBS. Chemiluminescence measurement (Perkin Elmer Wallac Microbeta Trilux 1450-029 (12-detector), Turkuu, Finland) was started directly and recorded after 2, 10 and 15 minutes.

Test [2] deals with TPO (produced in insect cells, RSR Ltd) (Homo sapiens (Human), UniProt P07202). Description: TPO activity (IC50), luminol chemiluminescence assay. Conditions: PBS pH7.4, luminol 100 μM, H2O2 50 μM, chemiluminescence recorded after 15 minutes. In kind it is biochemical. The procedure: as §1, §2
Chain of TPO (produced in insect cells, RSR Ltd) (P07202 19-933): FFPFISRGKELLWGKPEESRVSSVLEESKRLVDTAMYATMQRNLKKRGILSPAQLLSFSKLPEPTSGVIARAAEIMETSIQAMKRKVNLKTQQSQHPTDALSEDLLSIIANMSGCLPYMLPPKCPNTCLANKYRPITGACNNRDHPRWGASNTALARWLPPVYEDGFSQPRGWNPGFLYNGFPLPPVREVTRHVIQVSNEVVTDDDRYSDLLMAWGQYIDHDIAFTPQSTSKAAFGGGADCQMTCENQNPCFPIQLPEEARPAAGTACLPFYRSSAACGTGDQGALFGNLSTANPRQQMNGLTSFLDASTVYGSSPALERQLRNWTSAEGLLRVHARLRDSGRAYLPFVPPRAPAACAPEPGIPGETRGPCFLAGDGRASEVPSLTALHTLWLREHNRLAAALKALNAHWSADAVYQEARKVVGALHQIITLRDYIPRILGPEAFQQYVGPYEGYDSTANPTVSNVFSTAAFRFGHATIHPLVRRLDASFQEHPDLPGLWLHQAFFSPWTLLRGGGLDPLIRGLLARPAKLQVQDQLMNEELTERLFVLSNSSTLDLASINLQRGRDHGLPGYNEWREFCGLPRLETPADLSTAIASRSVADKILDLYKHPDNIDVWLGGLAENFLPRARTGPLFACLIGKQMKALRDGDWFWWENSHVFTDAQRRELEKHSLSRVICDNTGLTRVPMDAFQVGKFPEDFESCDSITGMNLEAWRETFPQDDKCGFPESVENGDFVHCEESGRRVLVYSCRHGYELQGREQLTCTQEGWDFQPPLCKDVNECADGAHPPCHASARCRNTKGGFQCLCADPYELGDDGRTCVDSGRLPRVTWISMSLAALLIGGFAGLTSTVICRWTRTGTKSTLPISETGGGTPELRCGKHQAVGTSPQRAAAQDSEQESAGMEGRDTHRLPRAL

The structures appear in SMILES notation.

The term IC50 denotes the concentration at which inhibition is half-maximal. A low value points to greater potency in that assay.

Chain of MPO (purified from HL60 cells) (P05164 49-745): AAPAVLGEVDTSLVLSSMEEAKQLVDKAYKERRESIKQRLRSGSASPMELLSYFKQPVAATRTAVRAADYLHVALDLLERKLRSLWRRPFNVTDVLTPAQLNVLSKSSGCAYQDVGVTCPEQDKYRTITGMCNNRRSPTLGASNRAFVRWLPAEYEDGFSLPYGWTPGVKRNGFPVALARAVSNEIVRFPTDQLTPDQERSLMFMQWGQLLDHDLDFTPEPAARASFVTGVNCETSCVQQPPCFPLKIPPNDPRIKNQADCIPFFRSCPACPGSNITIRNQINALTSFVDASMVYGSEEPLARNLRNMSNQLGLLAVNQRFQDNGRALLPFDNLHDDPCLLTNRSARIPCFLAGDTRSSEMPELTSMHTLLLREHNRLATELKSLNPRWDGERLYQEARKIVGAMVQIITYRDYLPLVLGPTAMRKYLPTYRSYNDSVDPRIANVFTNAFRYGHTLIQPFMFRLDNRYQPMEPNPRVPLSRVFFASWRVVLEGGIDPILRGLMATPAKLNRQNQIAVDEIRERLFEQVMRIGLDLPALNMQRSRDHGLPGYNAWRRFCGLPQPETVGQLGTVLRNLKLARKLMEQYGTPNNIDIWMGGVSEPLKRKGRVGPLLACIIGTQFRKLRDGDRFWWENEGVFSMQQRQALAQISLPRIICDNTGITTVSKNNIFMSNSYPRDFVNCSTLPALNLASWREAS

Regarding `O=c1[nH]c(=S)n(Cc2ccccc2C2CCC(F)CN2)c2nc[nH]c12` (stereo not drawn) [Example 15, 3-(2-(5-Fluoropiperidin-2-yl)benzyl)-2-thioxo-1,2,3,7-tetrahydro-6H-purin-6-one], the IC50 in test [1] amounted to 16 nM; in test [2] it was 540 nM.

With `O=c1[nH]c(=S)n(Cc2cccnc2C2CCCCN2)c2cc[nH]c12` (stereo not drawn) [Example 20, 1-((2-(Piperidin-2-yl)pyridin-3-yl)methyl)-2-thioxo-1,2,3,5-tetrahydro-4H-pyrrolo[3,2-d]pyrimidin-4-one], the IC50 in test [1] is 46 nM; in test [2], 2760 nM.

Regarding `O=c1[nH]c(=S)n(Cc2cccc3c2CNCC3)c2cc[nH]c12` [Example 23, 1-((1,2,3,4-Tetrahydroisoquinolin-8-yl)methyl)-2-thioxo-1,2,3,5-tetrahydro-4H-pyrrolo[3,2-d]pyrimidin-4-one], the IC50 stood at 10 nM in test [1] and 380 nM in test [2].

For `NC1(c2ccc(Cn3c(=S)[nH]c(=O)c4[nH]ccc43)cc2)CCC1` [Example 24, 1-(4-(1-Aminocyclobutyl)benzyl)-2-thioxo-1,2,3,5-tetrahydro-4H-pyrrolo[3,2-d]pyrimidin-4-one], the IC50 was found to be 12 nM in test [1] and 560 nM in test [2].

As to `O=c1[nH]c(=S)n(Cc2ccc3c(c2)CNC3)c2cc[nH]c12` [Example 25, 1-(Isoindolin-5-ylmethyl)-2-thioxo-1,2,3,5-tetrahydro-4H-pyrrolo[3,2-d]pyrimidin-4-one], the IC50 in test [1] amounted to 103 nM; in test [2], 570 nM.

Consider `O=c1[nH]c(=S)n(Cc2cccc3c2CNC3)c2cc[nH]c12` [Example 26, 1-(Isoindolin-4-ylmethyl)-2-thioxo-1,2,3,5-tetrahydro-4H-pyrrolo[3,2-d]pyrimidin-4-one], for which the IC50 in test [1] came out at 13 nM; in test [2] it was 840 nM.

Consider `NC1(c2cccc(Cn3c(=S)[nH]c(=O)c4[nH]ccc43)c2)CCC1` [Example 27, 1-(3-(1-Aminocyclobutyl)benzyl)-2-thioxo-1,2,3,5-tetrahydro-4H-pyrrolo[3,2-d]pyrimidin-4-one], for which the IC50 in test [1] was 5 nM; in test [2], 670 nM.

As to `O=c1[nH]c(=S)n(Cc2ccccc2C2CCCNC2)c2cc[nH]c12` (stereo not drawn) [Example 28, 1-(2-(Piperidin-3-yl)benzyl)-2-thioxo-1,2,3,5-tetrahydro-4H-pyrrolo[3,2-d]pyrimidin-4-one], the IC50 in test [1] turned out to be 3 nM; in test [2], 680 nM.

As to `O=c1[nH]c(=S)n(Cc2ccccc2C2CCNCC2)c2cc[nH]c12` [Example 30, 1-(2-(Piperidin-4-yl)benzyl)-2-thioxo-1,2,3,5-tetrahydro-4H-pyrrolo[3,2-d]pyrimidin-4-one], the half-maximal inhibitory concentration (IC50) came out at 29 nM in test [1] and 590 nM in test [2].
